{"source": "PubChem BioAssay (NCI)", "experiment_in_all_cases": "growth of human tumour cells (NCI), 384-well format", "key": {"786-0 renal": {"test_system": "786-0 renal"}, "A498 renal": {"test_system": "A498 renal"}, "A549 NSCLC": {"test_system": "A549 NSCLC"}, "ACHN renal": {"test_system": "ACHN renal"}, "BT-549 breast": {"test_system": "BT-549 breast"}, "CAKI-1 renal": {"test_system": "CAKI-1 renal"}, "CCRF-CEM leukemia": {"test_system": "CCRF-CEM leukemia"}, "COLO 205 colon": {"test_system": "COLO 205 colon"}, "DU-145 prostate": {"test_system": "DU-145 prostate"}, "HCC-2998 colon": {"test_system": "HCC-2998 colon"}, "HCT-116 colon": {"test_system": "HCT-116 colon"}, "HCT-15 colon": {"test_system": "HCT-15 colon"}, "HL-60(TB) leukemia": {"test_system": "HL-60(TB) leukemia"}, "HOP-62 NSCLC": {"test_system": "HOP-62 NSCLC"}, "HOP-92 NSCLC": {"test_system": "HOP-92 NSCLC"}, "HT29 colon": {"test_system": "HT29 colon"}, "IGROV1 ovarian": {"test_system": "IGROV1 ovarian"}, "K-562 leukemia": {"test_system": "K-562 leukemia"}, "KM12 colon": {"test_system": "KM12 colon"}, "LOX IMVI melanoma": {"test_system": "LOX IMVI melanoma"}, "M14 melanoma": {"test_system": "M14 melanoma"}, "MALME-3M melanoma": {"test_system": "MALME-3M melanoma"}, "MCF7 breast": {"test_system": "MCF7 breast"}, "MDA-MB-231 breast": {"test_system": "MDA-MB-231 breast"}, "MDA-MB-435 melanoma": {"test_system": "MDA-MB-435 melanoma"}, "MDA-MB-468 breast": {"test_system": "MDA-MB-468 breast"}, "MOLT-4 leukemia": {"test_system": "MOLT-4 leukemia"}, "NCI-H226 lung": {"test_system": "NCI-H226 lung"}, "NCI-H23 lung": {"test_system": "NCI-H23 lung"}}, "note": "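GI50 = concentration required for 50% inhibition of growth. TGI denotes the concentration required for complete inhibition of growth.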"}
{"smiles": "Cc1[nH]c(/C=C2\\C(=O)Nc3ccc(S(=O)(=O)Cc4c(Cl)cccc4Cl)cc32)c(C)c1C(=O)N1CCC[C@@H]1CN1CCCC1", "values": [{"measurement": "GI50", "setting": "786-0 renal", "value": 1440, "unit": "nM"}, {"measurement": "TGI", "setting": "786-0 renal", "value": 2750, "unit": "nM"}, {"measurement": "GI50", "setting": "A498 renal", "value": 1630, "unit": "nM"}, {"measurement": "TGI", "setting": "A498 renal", "value": 2990, "unit": "nM"}, {"measurement": "GI50", "setting": "A549 NSCLC", "value": 1710, "unit": "nM"}, {"measurement": "TGI", "setting": "A549 NSCLC", "value": 3.1, "unit": "µM"}, {"measurement": "GI50", "setting": "ACHN renal", "value": 1600, "unit": "nM"}, {"measurement": "TGI", "setting": "ACHN renal", "value": 2950, "unit": "nM"}, {"measurement": "GI50", "setting": "BT-549 breast", "value": 1560, "unit": "nM"}, {"measurement": "TGI", "setting": "BT-549 breast", "value": 2900, "unit": "nM"}, {"measurement": "GI50", "setting": "CAKI-1 renal", "value": 1530, "unit": "nM"}, {"measurement": "TGI", "setting": "CAKI-1 renal", "value": 2860, "unit": "nM"}, {"measurement": "GI50", "setting": "CCRF-CEM leukemia", "value": 681, "unit": "nM"}, {"measurement": "TGI", "setting": "CCRF-CEM leukemia", "value": 1900, "unit": "nM"}, {"measurement": "GI50", "setting": "COLO 205 colon", "value": 1720, "unit": "nM"}, {"measurement": "TGI", "setting": "COLO 205 colon", "value": 3.1, "unit": "µM"}, {"measurement": "GI50", "setting": "DU-145 prostate", "value": 1850, "unit": "nM"}, {"measurement": "TGI", "setting": "DU-145 prostate", "value": 3.25, "unit": "µM"}, {"measurement": "GI50", "setting": "HCC-2998 colon", "value": 1990, "unit": "nM"}, {"measurement": "TGI", "setting": "HCC-2998 colon", "value": 3.42, "unit": "µM"}, {"measurement": "GI50", "setting": "HCT-116 colon", "value": 1560, "unit": "nM"}, {"measurement": "TGI", "setting": "HCT-116 colon", "value": 2910, "unit": "nM"}, {"measurement": "GI50", "setting": "HCT-15 colon", "value": 1820, "unit": "nM"}, {"measurement": "TGI", "setting": "HCT-15 colon", "value": 3.23, "unit": "µM"}, {"measurement": "GI50", "setting": "HL-60(TB) leukemia", "value": 2110, "unit": "nM"}, {"measurement": "TGI", "setting": "HL-60(TB) leukemia", "value": 3.54, "unit": "µM"}, {"measurement": "GI50", "setting": "HOP-62 NSCLC", "value": 1850, "unit": "nM"}, {"measurement": "TGI", "setting": "HOP-62 NSCLC", "value": 3.25, "unit": "µM"}, {"measurement": "GI50", "setting": "HOP-92 NSCLC", "value": 1880, "unit": "nM"}, {"measurement": "TGI", "setting": "HOP-92 NSCLC", "value": 3.29, "unit": "µM"}, {"measurement": "GI50", "setting": "HT29 colon", "value": 1780, "unit": "nM"}, {"measurement": "TGI", "setting": "HT29 colon", "value": 3.18, "unit": "µM"}, {"measurement": "GI50", "setting": "IGROV1 ovarian", "value": 1710, "unit": "nM"}, {"measurement": "TGI", "setting": "IGROV1 ovarian", "value": 3.1, "unit": "µM"}, {"measurement": "GI50", "setting": "K-562 leukemia", "value": 1720, "unit": "nM"}, {"measurement": "TGI", "setting": "K-562 leukemia", "value": 3.1, "unit": "µM"}, {"measurement": "GI50", "setting": "KM12 colon", "value": 445, "unit": "nM"}, {"measurement": "TGI", "setting": "KM12 colon", "value": 1500, "unit": "nM"}, {"measurement": "GI50", "setting": "LOX IMVI melanoma", "value": 2020, "unit": "nM"}, {"measurement": "TGI", "setting": "LOX IMVI melanoma", "value": 3.46, "unit": "µM"}, {"measurement": "GI50", "setting": "M14 melanoma", "value": 1740, "unit": "nM"}, {"measurement": "TGI", "setting": "M14 melanoma", "value": 3.12, "unit": "µM"}, {"measurement": "GI50", "setting": "MALME-3M melanoma", "value": 1720, "unit": "nM"}, {"measurement": "TGI", "setting": "MALME-3M melanoma", "value": 3.1, "unit": "µM"}, {"measurement": "GI50", "setting": "MCF7 breast", "value": 1750, "unit": "nM"}, {"measurement": "TGI", "setting": "MCF7 breast", "value": 3.13, "unit": "µM"}, {"measurement": "GI50", "setting": "MDA-MB-231 breast", "value": 1670, "unit": "nM"}, {"measurement": "TGI", "setting": "MDA-MB-231 breast", "value": 3.04, "unit": "µM"}, {"measurement": "GI50", "setting": "MDA-MB-435 melanoma", "value": 1760, "unit": "nM"}, {"measurement": "TGI", "setting": "MDA-MB-435 melanoma", "value": 3.15, "unit": "µM"}, {"measurement": "GI50", "setting": "MDA-MB-468 breast", "value": 1580, "unit": "nM"}, {"measurement": "TGI", "setting": "MDA-MB-468 breast", "value": 2930, "unit": "nM"}, {"measurement": "GI50", "setting": "MOLT-4 leukemia", "value": 573, "unit": "nM"}, {"measurement": "TGI", "setting": "MOLT-4 leukemia", "value": 1730, "unit": "nM"}, {"measurement": "GI50", "setting": "NCI-H226 lung", "value": 1930, "unit": "nM"}, {"measurement": "TGI", "setting": "NCI-H226 lung", "value": 3.34, "unit": "µM"}, {"measurement": "GI50", "setting": "NCI-H23 lung", "value": 1020, "unit": "nM"}]}
